Experimental data as given in the NIST ThermoML archive (doi:10.1021/je0504111).

Legend:
[1] = refractive index (Na D-line) (dimensionless); xn = mol fraction of the nth substance listed; details: 298.15 K, 101 kPa, Liquid
[2] = 298.15 K; for surface tension liquid-gas: Drop volume; for mass density: 101.33 kPa, Liquid
[3] = refractive index (Na D-line) (dimensionless); details: 298.15 K; 101.33 kPa; Liquid; Standard Abbe refractometry
[4] = xn = mol fraction of the nth substance listed; details: 298.15 K; for surface tension liquid-gas: Drop volume; for mass density: 101 kPa, Liquid

CCCOC(=O)CC [propyl propanoate] + Cc1cccc(C)c1
[1]
Details	refractive index
x1 = 0.0448	1.4894
x1 = 0.1176	1.4814
x1 = 0.1702	1.4756
x1 = 0.2173	1.4704
x1 = 0.3134	1.4599
x1 = 0.3923	1.4515
x1 = 0.4461	1.4458
x1 = 0.4902	1.4412
x1 = 0.5421	1.4358
x1 = 0.5906	1.4308
x1 = 0.6442	1.4254
x1 = 0.7474	1.4151
x1 = 0.7982	1.4101
x1 = 0.8483	1.4052
x1 = 0.8942	1.4008
x1 = 0.9522	1.3952

Cc1cccc(C)c1 [1,3-dimethylbenzene]
Details	mass density [kg/m3]	refractive index	surface tension liquid-gas [mN/m]
[2]	859.78	–	28.03
[3]	–	1.4945	–

CCCCCC [hexane]
Details	mass density [kg/m3]	refractive index	surface tension liquid-gas [mN/m]
[2]	654.7	–	17.91
[3]	–	1.3723	–

Cc1cccc(C)c1 [1,3-dimethylbenzene] + CCCCCC
Details	mass density [kg/m3]	refractive index	surface tension liquid-gas [mN/m]
[1], x2 = 0.0431	–	1.4891	–
[1], x2 = 0.083	–	1.484	–
[1], x2 = 0.1562	–	1.4748	–
[1], x2 = 0.2093	–	1.4682	–
[1], x2 = 0.2997	–	1.4569	–
[1], x2 = 0.3521	–	1.4502	–
[1], x2 = 0.4276	–	1.4409	–
[1], x2 = 0.5167	–	1.43	–
[1], x2 = 0.5798	–	1.4223	–
[1], x2 = 0.6769	–	1.4106	–
[1], x2 = 0.7318	–	1.404	–
[1], x2 = 0.8329	–	1.392	–
[1], x2 = 0.8836	–	1.386	–
[1], x2 = 0.9325	–	1.3803	–
[4], x2 = 0.0431	850.57	–	–
[4], x2 = 0.0522	–	–	27.13
[4], x2 = 0.0797	–	–	26.69
[4], x2 = 0.0825	842.28	–	–
[4], x2 = 0.1442	–	–	25.66
[4], x2 = 0.1572	826.64	–	–
[4], x2 = 0.2008	–	–	24.85
[4], x2 = 0.2093	815.69	–	–
[4], x2 = 0.2281	–	–	24.48
[4], x2 = 0.2575	805.59	–	–
[4], x2 = 0.2997	796.8	–	–
[4], x2 = 0.3075	–	–	23.5
[4], x2 = 0.3563	785.03	–	–
[4], x2 = 0.3603	–	–	22.91
[4], x2 = 0.4106	–	–	22.39
[4], x2 = 0.4174	–	–	22.33
[4], x2 = 0.4278	770.24	–	–
[4], x2 = 0.483	758.86	–	–
[4], x2 = 0.5086	–	–	21.5
[4], x2 = 0.5167	751.98	–	–
[4], x2 = 0.5677	–	–	21.01
[4], x2 = 0.5833	738.31	–	–
[4], x2 = 0.6294	728.97	–	–
[4], x2 = 0.6431	–	–	20.41
[4], x2 = 0.6769	719.32	–	–
[4], x2 = 0.6771	–	–	20.15
[4], x2 = 0.7318	708.21	–	–
[4], x2 = 0.7418	–	–	19.7
[4], x2 = 0.7668	–	–	19.54
[4], x2 = 0.7817	698.13	–	–
[4], x2 = 0.8329	687.89	–	–
[4], x2 = 0.8545	–	–	18.99
[4], x2 = 0.8802	–	–	18.83
[4], x2 = 0.8914	676.22	–	–
[4], x2 = 0.9446	665.65	–	–
[4], x2 = 0.96	–	–	18.29

CCCOC(=O)CC [propyl propanoate]
Details	mass density [kg/m3]	refractive index	surface tension liquid-gas [mN/m]
[2]	875.53	–	24.1
[3]	–	1.3905	–
